The numbers were not newly measured in patent US7259160B2, “Hexahydrodiazepinones as dipeptidyl peptidase-IV inhibitors for the treatment or prevention of diabetes” (Merck & Co., Inc., priority 2003, dated 2007), which cites them from elsewhere.

One data set deals with hematopoiesis. The following applies: mouse, cyclophosphamide-induced neutropenia.
In the next data set the target is T1, DPP-IV (Homo sapiens, UniProt P27487).
T1 construct: GRF is rapidly degraded in plasma to GRF[344]
T1 sequence (P27487 whole entry, species assumed): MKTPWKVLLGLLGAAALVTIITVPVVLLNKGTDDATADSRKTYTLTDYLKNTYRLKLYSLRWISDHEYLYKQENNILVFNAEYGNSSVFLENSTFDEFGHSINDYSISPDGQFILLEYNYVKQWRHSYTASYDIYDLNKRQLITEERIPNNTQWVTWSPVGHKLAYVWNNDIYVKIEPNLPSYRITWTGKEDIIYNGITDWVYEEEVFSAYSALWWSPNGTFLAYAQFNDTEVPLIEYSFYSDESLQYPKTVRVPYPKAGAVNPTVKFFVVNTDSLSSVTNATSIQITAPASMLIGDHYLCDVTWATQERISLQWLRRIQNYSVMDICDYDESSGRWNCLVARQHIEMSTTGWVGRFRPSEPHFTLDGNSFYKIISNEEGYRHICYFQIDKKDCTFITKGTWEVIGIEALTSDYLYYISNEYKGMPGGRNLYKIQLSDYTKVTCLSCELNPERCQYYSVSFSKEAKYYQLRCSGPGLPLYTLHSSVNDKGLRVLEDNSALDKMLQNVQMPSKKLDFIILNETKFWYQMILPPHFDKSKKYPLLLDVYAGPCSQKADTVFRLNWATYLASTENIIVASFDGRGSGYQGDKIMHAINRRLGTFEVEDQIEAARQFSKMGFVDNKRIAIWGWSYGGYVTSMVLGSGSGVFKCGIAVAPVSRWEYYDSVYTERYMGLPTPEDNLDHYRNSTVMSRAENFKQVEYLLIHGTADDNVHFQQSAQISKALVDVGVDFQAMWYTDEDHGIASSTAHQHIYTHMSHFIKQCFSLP

Regarding `CC(C)[C@H](N)C(=O)N1CCC[C@H]1B(O)O` [Val-Boro-Pro], the hematopoiesis entry in the data set on hematopoiesis is given as “stimulated hematopoiesis”.

Consider diprotin A, for which the “degradation of GRF in plasma” value at DPP-IV is “prevented”.
